Tests used:
[1] = test system: amyloid precursor protein (APP); experiment: APP protein expression in neuronal primary cultures (Western blot); format: cell-based; details: hippocampal neurons, 100 μM, 18 h
Description: FIG. 8. Plots illustrating the effect of Aftin-5 on APP protein expression in neuronal primary cultures. Culture medium of hippocampal neurons was replaced by incubation medium containing Aftin-5 (100 μM) or vehicle (0.1% DMSO). 18 h later, APP protein in lysate was quantified by Western blotting with anti-APP polyclonal antibody (Millipore). The Western blots were quantified by densitometric analysis. Relative APP protein expression was expressed (Aftin-5) as comparison with the control condition (vehicle; Ctrl). Data expressed as means+/−SEM from one experiment with n=5 wells/condition.
Hippocampi and cortex were dissected in HBSS containing 5 mM glucose (dissection medium). […] Cells were counted and seeded at a density of 22,000 per cm^2 for hippocampal neurons and 10^5 per cm^2 for cortical neurons into 24 wells culture plates (Costar) in plating medium (DMEM medium containing 10% heat-inactivated horse serum (Life Technologies)). […]
Cells were lysed in freshly prepared lysis buffer containing in mM: Tris-HCl 50, EDTA 2, EGTA 2, NaCl 100, SDS 0.2%, Triton X-100 1%, proteases inhibitors (Roche Protease Inhibitor Cocktail #04693116001), phosphatases inhibitors (in mM: ammonium molybdate 0.1, β-glycerophosphate 20, NaF 50, Na-pyrophosphate 10, Orthovanadate 1). Protein concentration was measured by the Bradford assay and Laemmli buffer was added to each lysate. […]

IL-10 = IL-10 mRNA in OHSC (RT-qPCR); format: cell-based, mice; details: 50 μM, 10 days
Description: FIG. 10. Plots illustrating the effect of Aftin-5 on relative mRNA expression levels of interleukin-1-beta (IL-1β; (A)), interleukin-6 (IL-6; (B)), TNF-alpha (TNFα; (C)) and interleukin-10 (IL-10; (D)) in organotypic hippocampal slice cultures (OHSC). OHSC culture media […] were replaced by incubation medium containing Aftin-5 (50 μM; A50) or vehicle (0.1% DMSO; Veh). 10 days later, total mRNA in lysate was isolated and purified, cDNAs were then synthesized from […] of total mRNA. cDNAs were amplified by quantitative RT-PCR and the relative expression of specific genes was normalized to the housekeeping gene HPRT1 (2^−ΔCt). Mann-Whitney tests were performed and ***p<0.001 indicates significant differences between Aftin-5 and control conditions. Data expressed as means+/−SEM from q=3 independent experiments with n=4-6 inserts/condition and 10 slices/insert. […]
The impact of Aftin-5 on gene expression of different biomarkers was determined by measuring mRNA levels of selected BDNF, CREB, PS95, INS Receptor/IGF-1 receptor, IL-1β, IL-6 in OHSC treated chronically with Aftin-5 or in a total brain from mice exposed to Aftin-5 at either 8 or 30 mg/Kg. […] Threshold cycles (Ct) of target gene and cyclophilin A (Ppia−control housekeeping gene) were recorded and gene expression was calculated as 2^−ΔΔCt(ΔΔCt=ΔCttreated−ΔCtcontrol, ΔCt=Cttarget−CtPpia). […]

CC[C@H](CO)Nc1nc(N(C)c2ccccc2)c2ncn(C(C)C)c2n1 [Aftin-5]
level of APP [1]: does not change
IL-10 mRNA synthesis (IL-10): no changes
